Assay results from patent publication US20170226139A1, “CRYSTALLINE SALTS OF (Z)-O-OCTADEC-9-EN-1-YL O,O-DIHYDROGEN PHOSPHOROTHIOATE” (priority 2013, published 2017).
Entries after “also recorded” stand apart in the source; their conditions may differ. Like-named read-outs stand apart in the source and are kept apart here.

Legend:
LPA5 = target: T1, LPA5 (Homo sapiens, UniProt Q9H1C0); assay: Calcium-mobilization assay (FURA-2), LPA5 in B103 neuroblastoma cells; type: cell-based
T1 construct: expressed in transfected cells; host or cells: B103 rat neuroblastoma
T1 sequence (Q9H1C0 whole entry): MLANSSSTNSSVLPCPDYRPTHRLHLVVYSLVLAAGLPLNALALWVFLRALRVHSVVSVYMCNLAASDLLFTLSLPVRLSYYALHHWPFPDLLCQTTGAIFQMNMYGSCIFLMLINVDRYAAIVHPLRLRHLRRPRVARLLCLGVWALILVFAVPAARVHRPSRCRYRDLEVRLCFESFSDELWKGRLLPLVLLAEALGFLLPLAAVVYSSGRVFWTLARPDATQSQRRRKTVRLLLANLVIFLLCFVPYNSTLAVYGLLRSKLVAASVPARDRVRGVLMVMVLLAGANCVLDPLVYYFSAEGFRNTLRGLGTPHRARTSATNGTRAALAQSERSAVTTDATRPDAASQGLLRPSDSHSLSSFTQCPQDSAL
Protocol: (§1) We investigated structure-activity relationships across species, LPAR subtypes and between Rx100 and two known process impurities encountered in manufacture: Rx103 (‘E’ isomer) and Rx200 (oleyl phosphate and impurity, which can be an Rx100 degradant along with oleyl alcohol). Rx100, Rx103, Rx200 and native LPA were investigated at different human LPAR subtypes. In addition, the activity of these compounds was evaluated at LPA2 receptors from the rhesus, rat and mouse species. Human LPA1/2/3 subtypes were transfected into mouse embryonic fibroblasts (MEF) or rat hepatoma cells (RH7777)—both of which are normally non-responsive or null to LPA. Human LPA4 was transfected into Chinese hamster ovary (CHO) cells and LPA5 into the B103 neuroblastoma cell line. […] The B103 rat neuroblastoma cell line is endogenously nonresponsive to LPA but expresses heterologous LPA5 receptors well. […] LPAR activation elicits a G-protein-mediated transient rise in intracellular calcium level that is proportional to the concentration of LPA applied. The intracellular calcium level was quantified by the calcium-selective fluorescent indicator FURA-2 (e.g., increased intracellular calcium surge=increased fluorescence).

[1] = test system: lysophosphatidic acid receptor (LPAR); assay: Calcium-mobilization assay, overall statements for all species and LPAR subtypes tested; type: cell-based
Source text: The compound was medicinally designed as an LPA analog with the goal of decreasing the otherwise rapid metabolism of LPA itself. […] These receptors are ubiquitous by tissue and in those eukaryotes investigated. […] Thus, the mechanism of drug action for GI-ARS protection is activation of the transmembrane G protein-coupled lysophosphatidic acid receptor (LPAR) and, more specifically, the LPAR2 GPCR subtype. The primary pharmacodynamics is that LPAR2 activation leads to a cascade of intracellular events that switch cells from an apoptotic to a repair/regenerative pathway.
as §1
Oleyl alcohol is, of course, a common component of many non-toxic ingested or dermally applied substances.

Human LPA2 = Human LPA2 (Homo sapiens, UniProt Q9HBW0); assay: Competition binding assay, displacement of [3H]LPA from membranes of transfected HEK293 cells; set-up: expressed in transfected cells; host or cells: HEK293 (crude membrane fraction); conditions: 20 nM [3H]LPA; membranes of HEK293 cells transfected with human LPA2
Sequence of Human LPA2 (Q9HBW0 whole entry): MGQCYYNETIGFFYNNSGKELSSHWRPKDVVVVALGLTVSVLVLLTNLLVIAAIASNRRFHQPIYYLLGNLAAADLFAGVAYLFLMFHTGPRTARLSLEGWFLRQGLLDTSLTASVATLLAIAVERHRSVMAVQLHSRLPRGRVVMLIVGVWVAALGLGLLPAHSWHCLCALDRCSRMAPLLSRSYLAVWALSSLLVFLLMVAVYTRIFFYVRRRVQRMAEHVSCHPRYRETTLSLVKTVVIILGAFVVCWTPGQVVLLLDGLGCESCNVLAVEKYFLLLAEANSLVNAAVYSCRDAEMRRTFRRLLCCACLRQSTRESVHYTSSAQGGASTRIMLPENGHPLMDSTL
Protocol: A further study was performed to evaluate whether Rx100 displaces lysophosphatidic acid bound to its receptor. HEK293 cells were transfected with human LPA2 receptor.

[2] = Solubility by incremental addition method in water or simulated formulation solvent
[3] = test system: Cultured human peripheral lymphocytes cells; type: cell-based; conditions: for Aberrant Cells Mean % −g: excluding gaps only; for Aberrant Cells Mean % +g: plus cells with gaps only
Protocol: Cultured human peripheral lymphocytes cells were incubated in vitro with Rx100.Lysine for 3 hours with and without S9 mix and for 24 hours without S9 mix. For Rx100.Lysine, concentrations ranging from 3.39 to 500 μg/mL were examined in both treatment conditions. Adjusting for purity, the concentration ranges were 3.06 to 452 μg/mL. […] This increase was just above the historical vehicle control range (0 to 2.0%) for 3 hour treatment without metabolic activation. Thus the response observed is a weak positive and of questionable biological significance cytotoxicity was present just below the acceptable limit of 50±5% for this assay.
Thus, Rx100.Lysine was considered negative for inducing chromosome aberrations, polyploidy and endoreduplication, in cultured human peripheral blood lymphocytes following a 3 hour treatment with and a 24 treatment without metabolic activation.

cynomolgus monkeys = assay: Single-dose range-finding and 7-day repeat-dose toxicity in monkeys; type: in vivo
Protocol: In the first phase of the range-finding monkey study, one male and one female cynomolgus monkeys received single subcutaneous doses of Rx100.Lysine at 0.3, 1, 3, 10, 25 and 75 mg/kg of free acid. The vehicle for all doses was Sterile water for injection with 10 mM L-histidine. In the 7-day repeat-dose phase, two males and females were dosed subcutaneously at 10 mg/kg/day. Parameters evaluated included clinical signs, body weight, food consumption, and clinical and anatomic pathology. […] Animals were subsequently sacrificed. […] No effects on body weights were seen.

Beagle dogs = assay: Single-dose subcutaneous toxicity in dogs; type: in vivo
Source text: One group of one male and one female Beagle dogs received single escalating subcutaneous doses of Rx100.Lysine at 10 and 1 (female)/1.52 (male) mg/kg. […] Parameters evaluated included clinical signs, body weight, and gross pathology. The male and female dog survived until scheduled necropsy on Day 15. Administration of Rx100 had no effect on body weight or general health of the animals. Noteworthy clinical observations were confined to skin and behavior effects. Both animals scratched at the dose site, likely contributing to observations of redness at the dose site. Swelling and a thickened/raised area were also observed during the observation period. Clinical observations were sufficient to warrant the injection of diphenhydramine. […] Following injection of the L-lysine component of the formulation at an independent site, redness, scratching, or swelling was not seen.

[4] = 3-hour treatment with metabolic activation, 84.0 μg/mL
[5] = 3-hour treatment with metabolic activation, 120 μg/mL
[6] = 3-hour treatment with metabolic activation, 172 μg/mL
[7] = 3-hour treatment without metabolic activation, 120 μg/mL
[8] = 3-hour treatment without metabolic activation, 245 μg/mL
[9] = 3-hour treatment without metabolic activation, 350 μg/mL
[10] = 24-hour treatment without metabolic activation, 41.2 μg/mL
[11] = 24-hour treatment without metabolic activation, 84.0 μg/mL
[12] = 24-hour treatment without metabolic activation, 120 μg/mL

CCCCCCCC/C=C\CCCCCCCCOP(O)(O)=S [Rx100, (Z)—O-octadec-9-en-1-yl O,O-dihydrogen phosphorothioate]
EC50 (LPA5): 0.1 µM | Emax (LPA5; B103, read-out: Emax (% of LPA)): 104% | LPAR activation [1]: pan lysophosphatidic acid receptor (LPAR) agonist; also recorded: substantially more in vitro activity | displacement of 3H-LPA (Human LPA2): displaced 3H-LPA in a concentration-dependent manner

CCCCCCCC/C=C\CCCCCCCCOP(O)(O)=S [Rx100.L-Lysine, (Z)—O-octadec-9-en-1-yl O,O-dihydrogen phosphorothioate]
Solubility in water [2]: soluble in water | Solubility in the simulated formulation solvent ([2]; 3% polyethylene glycol 200, 1% ethanol, 10 mM monosodium phosphate, balance water): soluble | Solubility in water ([2]; listed as L-Lysine salt): soluble | Cytotoxicity (% of Control) [3, 4]: 77 % of Control | Endoreduplicate Mean % [3, 4]: 0.0% | Polyploidy Mean % [3, 4]: 0.0% | Aberrant Cells Mean % −g [3, 4]: 0.0% | Aberrant Cells Mean % +g [3, 4]: 1.5% | Cytotoxicity (% of Control) [3, 5]: 65 % of Control | Endoreduplicate Mean % [3, 5]: 0.0% | Polyploidy Mean % [3, 5]: 0.0% | Aberrant Cells Mean % −g [3, 5]: 0.5% | Aberrant Cells Mean % +g [3, 5]: 2.5% | Cytotoxicity (% of Control) [3, 6]: 68 % of Control | Endoreduplicate Mean % [3, 6]: 0.0% | Polyploidy Mean % [3, 6]: 0.0% | Aberrant Cells Mean % −g [3, 6]: 0.5% | Aberrant Cells Mean % +g [3, 6]: 3.0% | Endoreduplicate Mean % [3, 7]: 0.0% | Polyploidy Mean % [3, 7]: 0.5% | Aberrant Cells Mean % −g [3, 7]: 0.5% | Aberrant Cells Mean % +g [3, 7]: 1.0% | Endoreduplicate Mean % [3, 8]: 0.0% | Polyploidy Mean % [3, 8]: 1.5% | Aberrant Cells Mean % −g [3, 8]: 3.0% | Aberrant Cells Mean % +g [3, 8]: 6.0% | Endoreduplicate Mean % [3, 9]: 0.0% | Polyploidy Mean % [3, 9]: 3.0% | Aberrant Cells Mean % −g [3, 9]: 6.0% | Aberrant Cells Mean % +g [3, 9]: 8.5% | Endoreduplicate Mean % [3, 10]: 0.0% | Polyploidy Mean % [3, 10]: 0.0% | Aberrant Cells Mean % −g [3, 10]: 0.5% | Aberrant Cells Mean % +g [3, 10]: 3.0% | Endoreduplicate Mean % [3, 11]: 0.0% | Polyploidy Mean % [3, 11]: 0.0% | Aberrant Cells Mean % −g [3, 11]: 2.0% | Aberrant Cells Mean % +g [3, 11]: 5.5% | Endoreduplicate Mean % [3, 12]: 0.0% | Polyploidy Mean % [3, 12]: 1.0% | Aberrant Cells Mean % −g [3, 12]: 0.5% | Aberrant Cells Mean % +g [3, 12]: 4.5% | Genotoxic Effects ([3]; 3 hour treatment with S9 and 24 hour treatment without S9): Genotoxic Effects: Negative for inducing chromosome aberrations, polyploidy and endoreduplication following a 3 hour treatment | chromosome aberrations, polyploidy and endoreduplication ([3]; 3 hours with or 24 hours without metabolic activation, listed as Rx100.Lysine): No increase in structural or numerical aberrations, polyploidy or endoreduplication; also recorded: negative | cells with chromosome aberrations ([3]; 3 hours without metabolic activation, increase only at 316 μg/mL, listed as Rx100.Lysine): small but statistically significant increase; also recorded: weakly positive | cytotoxicity ([3]; highest concentration tested, 3-hour exposure): Cytotoxicity was observed | Cytotoxic Effect ([3]; study summary, primary human lymphocytes): Cytotoxic Effect: None | effects on body weights (cynomolgus monkeys; 10 mg/kg/day SC, 7 days): No effects | signs in repeated dose phase (cynomolgus monkeys; 10 mg/kg/day SC, 7 days): intermittent food consumption and adverse effects at the injection sites | clinical signs (cynomolgus monkeys; single SC dose 75 mg/kg): animals became hunched and were obviously in pain | treatment related effects (cynomolgus monkeys; single SC doses up to and including 25 mg/kg): no meaningful treatment related effects | clinical observations at dose sites (Beagle dogs; 1 mg/kg dose): persistent scratching and swelling at dose sites | macroscopic and microscopic findings at dose sites (Beagle dogs; 1 mg/kg dose): No remarkable findings | tolerability of subcutaneous injection (Beagle dogs; Rx100 formulation, beagle dogs): not tolerated | microscopic examination of injection site (Beagle dogs; injection site A (10 mg/kg), both animals): chronic-active inflammation with necrosis and vascular thrombus formation | effect on body weight or general health (Beagle dogs; single escalating SC doses 10 and 1/1.52 mg/kg): no effect
